Measurements as given in patent publication US20130184222A1, “[…] ACTIVE COMPOSITIONS AND THEIR METHODS OF USE” (AGIOS PHARMACEUTICALS, INC, priority 2010, published 2013).

Experiments:
HT1080 cells = assay: Cellular assay: inhibition of 2-HG production in HT1080 cells (LC-MS, 48 hours); type: cell-based; conditions: Homo sapiens, HT-1080, 2-HG in media by LC-MS
Method: Cells (HT1080 or U87MG) were grown in T125 flasks in DMEM containing 10% FBS, 1× penicillin/streptomycin and 500 ug/mL G418 (present in U87MG cells only). They were harvested by trypsin and seeded into 96 well white bottom plates at a density of 5000 cell/well in 100 ul/well in DMEM with 10% FBS. No cells were placed in columns 1 and 12. Cells were incubated overnight at 37° C. in 5% CO2. The next day test compounds were made up at 2× the final concentration and 100 ul were added to each cell well. The final concentration of DMSO was 0.2% and the DMSO control wells were plated in row G. The plates were then placed in the incubator for 48 hours. At 48 hours, 100 ul of media was removed from each well and analyzed by LC-MS for 2-HG concentrations. The cell plate was placed back in the incubator for another 24 hours. At 72 hours post compound addition, 10 mL/plate of Promega Cell Titer Glo reagent was thawed and mixed. The cell plate was removed from the incubator and allowed to equilibrate to room temperature. Then 100 ul of Promega Cell Titer Glo reagent was added to each well of media. The cell plate was then placed on an orbital shaker for 10 minutes and then allowed to sit at room temperature for 20 minutes. The plate was then read for luminescence with an integration time of 500 ms.

U87MG cells = assay: Cellular assay: inhibition of 2-HG production in U87MG cells (LC-MS, 48 hours); type: cell-based; conditions: Homo sapiens, U-87 MG, 2-HG in media by LC-MS
Method in brief: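 HT1080 or U87MG cells (5000/well, DMEM + 10% FBS) seeded overnight, then exposed to compound (0.2% DMSO final) for 48 h; medium 2-HG measured by LC-MS. Viability read by CellTiter-Glo luminescence at 72 h.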

IDH1 R132H = IDH1 R132H (Homo sapiens, UniProt O75874, R132H); assay: In vitro assay for IDH1 R132H inhibitors (NADPH/aKG, resazurin detection); type: biochemical; conditions: Table 4B; 0.2 μg/ml IDH1 R132H, 50 minutes at room temperature; read-out: IC50, IDH1 R132H Inhibition
Chain of IDH1 R132H (O75874 whole entry R132H): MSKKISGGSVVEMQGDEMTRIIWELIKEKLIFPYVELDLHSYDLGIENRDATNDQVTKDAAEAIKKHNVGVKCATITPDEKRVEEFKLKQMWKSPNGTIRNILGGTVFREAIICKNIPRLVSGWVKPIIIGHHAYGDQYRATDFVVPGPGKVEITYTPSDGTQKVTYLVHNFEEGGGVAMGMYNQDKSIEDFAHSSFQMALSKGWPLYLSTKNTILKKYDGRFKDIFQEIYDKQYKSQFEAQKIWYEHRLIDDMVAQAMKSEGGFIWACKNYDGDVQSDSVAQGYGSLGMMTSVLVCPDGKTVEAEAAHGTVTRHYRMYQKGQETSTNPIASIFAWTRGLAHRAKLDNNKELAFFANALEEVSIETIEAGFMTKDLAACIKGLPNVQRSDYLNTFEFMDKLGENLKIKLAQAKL
Method in brief: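 Buffer: 150 mM NaCl, 10 mM MgCl2, 20 mM Tris pH 7.5, 0.03% BSA. Compound was added to substrate mix (8 uM NADPH, 2 mM aKG), then enzyme mix (0.2 μg/ml IDH1 R132H), and incubated 50 min at room temperature. Remaining NADPH was read by resazurin (30 μM in detection mix) to resorufin fluorescence after 5 min, Ex544/Em590.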

SMILES | IC50 (HT1080 cells) | IC50 (U87MG cells) | IC50 (IDH1 R132H)
Cc1ccccc1C(C(=O)NC1CCCCC1)N(C(=O)Cn1ccnc1C)c1cccc(N2CCOCC2)c1 (stereo not drawn) [Compound 231] | 1000 to 5000 nM | ≤ 250 nM | 100 to 1000 nM
Cc1ccccc1C(C(=O)NC1CCCCC1)N(C(=O)Cn1ccnc1C)c1cccc(N2CCN(C(=O)OC(C)(C)C)CC2)c1 (stereo not drawn) [Compound 232] | 1000 to 5000 nM | ≤ 250 nM | 100 to 1000 nM
Cc1ccccc1C(C(=O)NC1CCCCC1)N(C(=O)COCc1cccnc1)c1cccc(F)c1 (stereo not drawn) [Compound 233] | 250 to 1000 nM | 1000 to 5000 nM | 100 to 1000 nM
CC(=O)Nc1cccc(N(C(=O)Cn2ccnc2C)C(C(=O)NC2CCCCC2)c2ccccc2C)c1 (stereo not drawn) [Compound 236] | > 5000 nM | 1000 to 5000 nM | 100 to 1000 nM
Cc1ccccc1C(C(=O)NC1CCCCC1)N(C(=O)CNc1ccc(F)nc1)c1cccc(F)c1 (stereo not drawn) [Compound 237] | 250 to 1000 nM | 1000 to 5000 nM | ≤ 100 nM
Cc1ccccc1C(C(=O)NC1CCCCC1)N(C(=O)Cc1c[nH]c2ccccc12)c1ccn(C)n1 (stereo not drawn) [Compound 238] | 250 to 1000 nM | 1000 to 5000 nM | 100 to 1000 nM
Cc1nccn1CC(=O)N(c1cccc(F)c1)[C@H](C(=O)NC1CCCCC1)c1ccccc1 [Compound 239] | 250 to 1000 nM | ≤ 250 nM | 100 to 1000 nM
Cc1ccccc1C(C(=O)NC1CCCCC1)N(C(=O)Cn1ccc(F)cc1=N)c1cccc(F)c1 (stereo not drawn) [Compound 240] | 250 to 1000 nM | 1000 to 5000 nM | ≤ 100 nM
COC(=O)Nc1cccc(N(C(=O)Cn2ccnc2C)C(C(=O)NC2CCCCC2)c2ccccc2C)c1 (stereo not drawn) [Compound 241] | 1000 to 5000 nM | 250 to 1000 nM | 100 to 1000 nM
Cc1ccccc1C(C(=O)NC1CCCCC1)N(C(=O)Cc1cn(C)c2ccccc12)c1cccc(F)c1 (stereo not drawn) [Compound 243] | 250 to 1000 nM | 250 to 1000 nM | 100 to 1000 nM
Cc1ccccc1C(C(=O)NC1CCCCC1)N(C(=O)Cc1cn(C)c2ccccc12)c1ccn(C)n1 (stereo not drawn) [Compound 244] | 250 to 1000 nM | 1000 to 5000 nM | 100 to 1000 nM
Cc1ccccc1C(C(=O)NC1CCCCC1)N(C(=O)CN1CCCc2ccccc21)c1ccn(C)n1 (stereo not drawn) [Compound 245] | 250 to 1000 nM | 1000 to 5000 nM | 100 to 1000 nM
Cc1ccccc1C(C(=O)NC1CCCCC1)N(C(=O)Cn1ccnc1C)c1ccn(C)n1 (stereo not drawn) [Compound 246] | 1000 to 5000 nM | 250 to 1000 nM | 100 to 1000 nM
COc1cccc(NCC(=O)N(c2cccc(F)c2)C(C(=O)NC2CCCCC2)c2ccccc2C)c1 (stereo not drawn) [Compound 247] | ≤ 250 nM | 250 to 1000 nM | ≤ 100 nM
Cc1ccccc1C(C(=O)NC1CCCCC1)N(C(=O)CN1CCN(C(=O)O[C@H]2CCOC2)CC1)c1cccc(F)c1 (stereo partly drawn) [Compound 248] | 1000 to 5000 nM | 1000 to 5000 nM | 100 to 1000 nM
CCOC(=O)N1CCN(CC(=O)N(c2cccc(F)c2)C(C(=O)NC2CCCCC2)c2ccccc2C)CC1 (stereo not drawn) [Compound 249] | 250 to 1000 nM | 250 to 1000 nM | 100 to 1000 nM
Cc1ccccc1C(C(=O)NC1CCCCC1)N(C(=O)CN1CCN(C(=O)OC(C)C)CC1)c1cccc(F)c1 (stereo not drawn) [Compound 250] | 1000 to 5000 nM | 1000 to 5000 nM | 100 to 1000 nM
Cc1ccccc1C(C(=O)NC1CCCCC1)N(C(=O)CO[C@H]1CCOC1)c1cccc(F)c1 (stereo partly drawn) [Compound 251] | 250 to 1000 nM | 250 to 1000 nM | 100 to 1000 nM
Cc1ccccc1C(C(=O)NC1CCCCC1)N(C(=O)Cn1ccc2ncccc21)c1cccc(F)c1 (stereo not drawn) [Compound 252] | 1000 to 5000 nM | 250 to 1000 nM | 100 to 1000 nM

SMILES | IC50 (HT1080 cells) | IC50 (U87MG cells) | IC50 (IDH1 R132H)
Cc1ccccc1C(C(=O)NC1CCCCC1)N(C(=O)CNc1ccc(F)cn1)c1cccc(F)c1 (stereo not drawn) [Compound 253] | ≤ 250 nM | 250 to 1000 nM | ≤ 100 nM
Cc1ccccc1C(C(=O)NC1CCCCC1)N(C(=O)CNCc1cnccn1)c1cccc(F)c1 (stereo not drawn) [Compound 254] | 1000 to 5000 nM | 1000 to 5000 nM | 100 to 1000 nM
Cc1ccccc1C(C(=O)NC1CCCCC1)N(C(=O)Cn1cnc2ccccc21)c1ccn(C)n1 (stereo not drawn) [Compound 255] | ≤ 250 nM | 250 to 1000 nM | 100 to 1000 nM
Cc1ccccc1C(C(=O)NC1CCCCC1)N(C(=O)CNCc1ccn(C)n1)c1cccc(F)c1 (stereo not drawn) [Compound 256] | 250 to 1000 nM | 1000 to 5000 nM | 100 to 1000 nM
Cc1ccccc1C(C(=O)NC1CCCCC1)N(C(=O)CNCc1nccs1)c1cccc(F)c1 (stereo not drawn) [Compound 257] | 250 to 1000 nM | 250 to 1000 nM | 100 to 1000 nM
Cc1ccccc1C(C(=O)NC1CCCCC1)N(C(=O)CNc1ccc(S(C)(=O)=O)cc1)c1cccc(F)c1 (stereo not drawn) [Compound 258] | 250 to 1000 nM | 250 to 1000 nM | 100 to 1000 nM
Cc1ccccc1C(C(=O)NC1CCCCC1)N(C(=O)COC1CCOCC1)c1cccc(F)c1 (stereo not drawn) [Compound 259] | 250 to 1000 nM | 250 to 1000 nM | 100 to 1000 nM
Cc1ccccc1C(C(=O)NC1CCCCC1)N(C(=O)COc1ccc(F)cn1)c1cccc(F)c1 (stereo not drawn) [Compound 260] | ≤ 250 nM | 250 to 1000 nM | ≤ 100 nM
Cc1ccccc1C(C(=O)NC1CCCCC1)N(C(=O)Cc1c[nH]c2ccncc12)c1cccc(F)c1 (stereo not drawn) [Compound 261] | 250 to 1000 nM | 1000 to 5000 nM | 100 to 1000 nM
Cc1ccccc1C(C(=O)NC1CCCCC1)N(C(=O)C(=O)c1c[nH]c2ccccc12)c1cccc(F)c1 (stereo not drawn) [Compound 262] | 1000 to 5000 nM | 1000 to 5000 nM | 100 to 1000 nM
Cc1ccccc1C(C(=O)NC1CCCCC1)N(C(=O)Cc1ccc(OC(=O)N(C)C)cc1)c1cccc(F)c1 (stereo not drawn) [Compound 263] | ≤ 250 nM | 250 to 1000 nM | 100 to 1000 nM
Cc1ccccc1C(C(=O)NC1CCCCC1)N(C(=O)Cc1ccc(OC(=O)N2CCOCC2)cc1)c1cccc(F)c1 (stereo not drawn) [Compound 264] | 250 to 1000 nM | 250 to 1000 nM | 100 to 1000 nM
Cc1ccccc1C(C(=O)NC1CCCCC1)N(C(=O)CNc1cccc(C#N)c1)c1cccc(F)c1 (stereo not drawn) [Compound 265] | ≤ 250 nM | 250 to 1000 nM | ≤ 100 nM
Cc1ccccc1C(C(=O)NC1CCCCC1)N(C(=O)Cn1cnc2cnccc21)c1cccc(F)c1 (stereo not drawn) [Compound 266] | > 5000 nM | > 5000 nM | 100 to 1000 nM
Cc1ccccc1C(C(=O)NC1CCCCC1)N(C(=O)CNCc1cscn1)c1cccc(F)c1 (stereo not drawn) [Compound 267] | 250 to 1000 nM | 1000 to 5000 nM | 100 to 1000 nM
Cc1ccccc1C(C(=O)NC1CCCCC1)N(C(=O)Cn1ccnc1C)c1cccc(Br)c1 (stereo not drawn) [Compound 268] | 1000 to 5000 nM | ≤ 250 nM | 100 to 1000 nM
Cc1ccccc1C(C(=O)NC1CCCCC1)N(C(=O)C(=O)c1c[nH]c2ccncc12)c1cccc(F)c1 (stereo not drawn) [Compound 269] | 1000 to 5000 nM | 1000 to 5000 nM | 100 to 1000 nM
Cc1ccccc1C(C(=O)NC1CCCCC1)N(C(=O)C(=O)NCc1ccncc1)c1cccc(F)c1 (stereo not drawn) [Compound 270] | 1000 to 5000 nM | 1000 to 5000 nM | 100 to 1000 nM
